Experiments:
Assay type in all cases: biochemical
recombinant GTase A062 = molecular target: T1, recombinant GTase A062 (Arabidopsis thaliana, UniProt Q9LR44); experiment: Specific activity of recombinant GTase producing glucose ester against lignin precursors (HPLC); settings: 0.5 ml of potential substrates, 5 mM UDPG, 0.2 μg GTase, 200 μl, 20° C., 30 min
T1 construct: made in house; host or cells: E. coli
T1 sequence (Q9LR44 1-469): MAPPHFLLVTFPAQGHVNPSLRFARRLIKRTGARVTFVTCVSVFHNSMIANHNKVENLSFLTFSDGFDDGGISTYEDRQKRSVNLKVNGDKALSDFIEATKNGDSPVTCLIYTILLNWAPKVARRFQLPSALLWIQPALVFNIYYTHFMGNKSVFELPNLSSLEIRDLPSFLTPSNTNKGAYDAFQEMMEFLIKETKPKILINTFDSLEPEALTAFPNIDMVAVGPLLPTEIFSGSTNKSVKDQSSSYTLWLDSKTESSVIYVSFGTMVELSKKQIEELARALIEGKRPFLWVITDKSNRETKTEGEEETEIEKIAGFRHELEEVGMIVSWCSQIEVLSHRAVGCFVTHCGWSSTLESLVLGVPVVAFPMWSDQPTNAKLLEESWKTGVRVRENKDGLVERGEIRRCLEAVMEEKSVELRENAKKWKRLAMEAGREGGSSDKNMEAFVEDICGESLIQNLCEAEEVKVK

UGT71C1 = molecular target: T2, UGT71C1 (Arabidopsis thaliana, UniProt O82381); experiment: UGT71C1 glucosyltransferase specific activity towards phenolic compounds (reverse-phase HPLC); settings: 1 mM phenolic compound, 5 mM UDP-glucose, 50 mM TRIS-HCl pH 7.0, 30° C., 30 min; mean of three replicates ± standard deviation
T2 construct: GST (N); made in house; host or cells: E. coli
T2 sequence (O82381 1-481): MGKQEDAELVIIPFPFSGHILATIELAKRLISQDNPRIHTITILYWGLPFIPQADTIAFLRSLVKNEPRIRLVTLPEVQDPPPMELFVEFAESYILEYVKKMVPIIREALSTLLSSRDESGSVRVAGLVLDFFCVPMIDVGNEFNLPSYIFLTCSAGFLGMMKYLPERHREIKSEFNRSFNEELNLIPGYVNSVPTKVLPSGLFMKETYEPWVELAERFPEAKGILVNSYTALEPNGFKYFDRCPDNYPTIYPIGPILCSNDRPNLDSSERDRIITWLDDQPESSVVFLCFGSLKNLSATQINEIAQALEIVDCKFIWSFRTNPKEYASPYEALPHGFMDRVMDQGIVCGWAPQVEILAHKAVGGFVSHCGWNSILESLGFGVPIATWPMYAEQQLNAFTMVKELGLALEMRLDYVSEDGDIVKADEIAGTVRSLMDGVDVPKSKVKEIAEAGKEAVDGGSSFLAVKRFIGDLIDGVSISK

recombinant GTase A911 = molecular target: T3, recombinant GTase A911 (Arabidopsis thaliana, UniProt O22182); experiment: Specific activity of recombinant GTase producing glucose ester against lignin precursors (HPLC); parameters: made in house; host or cells: E. coli; settings: 0.5 ml of potential substrates, 5 mM UDPG, 0.2 μg GTase, 200 μl, 20° C., 30 min
T3 sequence (O22182 1-456): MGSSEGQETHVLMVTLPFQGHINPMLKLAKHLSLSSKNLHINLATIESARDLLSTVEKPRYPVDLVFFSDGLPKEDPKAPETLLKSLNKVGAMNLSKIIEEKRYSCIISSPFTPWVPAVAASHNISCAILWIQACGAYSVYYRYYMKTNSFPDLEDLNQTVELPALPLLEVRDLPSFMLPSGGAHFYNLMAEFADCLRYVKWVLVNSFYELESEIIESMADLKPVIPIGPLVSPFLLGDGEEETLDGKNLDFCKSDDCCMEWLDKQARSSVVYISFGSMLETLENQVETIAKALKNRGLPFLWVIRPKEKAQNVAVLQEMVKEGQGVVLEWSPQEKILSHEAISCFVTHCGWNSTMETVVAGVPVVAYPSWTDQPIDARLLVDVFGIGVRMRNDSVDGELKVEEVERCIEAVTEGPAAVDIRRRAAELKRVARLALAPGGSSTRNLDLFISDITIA

recombinant GTase A320 = molecular target: T4, recombinant GTase A320 (Arabidopsis thaliana, UniProt Q9LVF0); experiment: as above; settings: 5 mM UDPG, 0.2 μg GTase, 200 μl, 20° C., 30 min
T4 construct: made in house; host or cells: E. coli
T4 sequence (Q9LVF0 1-496): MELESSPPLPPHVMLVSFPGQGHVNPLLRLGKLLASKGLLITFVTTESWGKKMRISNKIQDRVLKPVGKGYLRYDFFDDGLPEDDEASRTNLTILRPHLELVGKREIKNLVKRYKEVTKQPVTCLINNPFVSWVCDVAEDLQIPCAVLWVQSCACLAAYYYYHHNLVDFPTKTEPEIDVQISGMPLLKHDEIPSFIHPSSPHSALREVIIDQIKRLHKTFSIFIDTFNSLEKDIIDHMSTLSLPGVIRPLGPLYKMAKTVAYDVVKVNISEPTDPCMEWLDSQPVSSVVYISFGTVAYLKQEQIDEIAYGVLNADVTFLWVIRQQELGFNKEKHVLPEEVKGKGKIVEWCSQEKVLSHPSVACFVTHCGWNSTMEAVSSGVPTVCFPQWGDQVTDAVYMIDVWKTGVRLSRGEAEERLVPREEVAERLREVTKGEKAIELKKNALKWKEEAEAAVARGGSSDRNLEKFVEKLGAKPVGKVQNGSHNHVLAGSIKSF

recombinant GTase A233 = molecular target: T5, recombinant GTase A233 (Arabidopsis thaliana, UniProt Q8W491); experiment: Specific activity of recombinant GTase producing O-glucosides against lignin precursors (HPLC); settings: 30° C.; ND = not detected
T5 construct: made in house; host or cells: E. coli

recombinant GTase A119 = molecular target: T6, recombinant GTase A119 (Arabidopsis thaliana, UniProt Q9LVR1); experiment: as above; settings: 30° C.; ND = not detected
T6 construct: made in house; host or cells: E. coli
T6 sequence (Q9LVR1 1-481): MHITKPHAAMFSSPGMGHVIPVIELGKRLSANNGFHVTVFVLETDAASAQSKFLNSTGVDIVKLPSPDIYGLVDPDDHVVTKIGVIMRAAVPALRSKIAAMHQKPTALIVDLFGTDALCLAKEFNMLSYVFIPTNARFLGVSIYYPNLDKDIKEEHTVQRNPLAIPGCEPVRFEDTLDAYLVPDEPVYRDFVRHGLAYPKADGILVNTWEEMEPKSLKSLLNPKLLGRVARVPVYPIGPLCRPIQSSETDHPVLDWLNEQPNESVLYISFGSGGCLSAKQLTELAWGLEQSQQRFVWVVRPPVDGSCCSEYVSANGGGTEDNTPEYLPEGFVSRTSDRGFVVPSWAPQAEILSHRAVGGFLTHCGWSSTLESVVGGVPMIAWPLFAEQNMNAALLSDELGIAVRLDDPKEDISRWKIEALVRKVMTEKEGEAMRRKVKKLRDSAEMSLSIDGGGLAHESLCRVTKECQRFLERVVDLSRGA

recombinant GTase A407 = molecular target: T7, recombinant GTase A407 (Arabidopsis thaliana, UniProt O81498); experiment: as above; settings: 30° C.; ND = not detected
T7 construct: made in house; host or cells: E. coli
T7 sequence (O81498 1-481): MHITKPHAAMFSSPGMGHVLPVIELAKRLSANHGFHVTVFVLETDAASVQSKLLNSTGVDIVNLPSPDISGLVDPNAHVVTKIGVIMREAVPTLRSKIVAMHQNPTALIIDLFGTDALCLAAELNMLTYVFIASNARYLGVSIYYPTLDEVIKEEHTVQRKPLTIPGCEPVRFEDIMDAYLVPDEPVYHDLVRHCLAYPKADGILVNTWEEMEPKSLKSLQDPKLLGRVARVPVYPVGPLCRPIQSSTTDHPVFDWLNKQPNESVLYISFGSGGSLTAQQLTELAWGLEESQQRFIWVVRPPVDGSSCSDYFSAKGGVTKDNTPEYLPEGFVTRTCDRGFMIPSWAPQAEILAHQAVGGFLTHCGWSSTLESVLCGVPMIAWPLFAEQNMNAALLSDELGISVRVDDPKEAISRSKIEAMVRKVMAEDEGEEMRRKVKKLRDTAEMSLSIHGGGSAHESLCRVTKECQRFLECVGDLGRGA

recombinant GTase A961 = molecular target: T8, recombinant GTase A961 (Arabidopsis thaliana, UniProt O82381); experiment: as above; settings: 30° C.; ND = not detected
T8 construct: made in house; host or cells: E. coli
T8 sequence (O82381 1-481): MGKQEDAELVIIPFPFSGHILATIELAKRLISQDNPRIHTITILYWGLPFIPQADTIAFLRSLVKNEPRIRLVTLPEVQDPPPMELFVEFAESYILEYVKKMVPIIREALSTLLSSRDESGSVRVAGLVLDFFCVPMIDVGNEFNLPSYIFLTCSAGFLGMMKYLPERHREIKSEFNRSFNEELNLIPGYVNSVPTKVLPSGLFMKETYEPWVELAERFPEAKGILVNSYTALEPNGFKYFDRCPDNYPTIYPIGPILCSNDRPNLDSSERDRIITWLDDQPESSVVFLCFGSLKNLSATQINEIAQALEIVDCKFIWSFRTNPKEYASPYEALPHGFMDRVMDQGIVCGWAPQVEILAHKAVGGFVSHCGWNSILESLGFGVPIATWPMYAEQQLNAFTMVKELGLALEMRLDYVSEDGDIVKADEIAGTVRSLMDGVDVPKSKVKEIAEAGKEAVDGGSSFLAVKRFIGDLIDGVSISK

recombinant GTase A43 = molecular target: T9, recombinant GTase A43 (Arabidopsis thaliana, UniProt O23402); experiment: Specific activity of recombinant GTase producing glucose ester against lignin precursors (HPLC); settings: 0.5 ml of potential substrates, 5 mM UDPG, 0.2 μg GTase, 200 μl, 20° C., 30 min
T9 construct: made in house; host or cells: E. coli

## O=C(O)C=Cc1ccc(O)c(O)c1 [Caffeic acid, 3,4-dihydroxycinnamic acid]
Recombinant GTase A062
  Specific activity of A062 (substrate converted to glucose ester): 0.26 nkat/mg
UGT71C1
  Specific activity (UGT71C1): 2.9 ± 0.8 nkat/mg
Recombinant GTase A911
  Specific activity of A911 (substrate converted to glucose ester): 0.77 nkat/mg
Recombinant GTase A320
  Specific activity of A320 (substrate converted to glucose ester): 0.05 nkat/mg
Recombinant GTase A233
  Specific activity of A233 (substrate converted to 4-O-glucoside): 0.48 nkat/mg
Recombinant GTase A119
  Specific activity of A119 (substrate converted to 4-O-glucoside): 0.13 nkat/mg
Recombinant GTase A407
  Specific activity of A407 (substrate converted to 4-O-glucoside): 0.07 nkat/mg
Recombinant GTase A961
  Specific activity of A961 (substrate converted to 4-O-glucoside): 0.07 nkat/mg
Recombinant GTase A43
  Specific activity of A43 (substrate converted to glucose ester): 0.01 nkat/mg
